Experiment [1] addresses T1, PRDX6 with GFP tag (Homo sapiens, UniProt P30041, C91A).
T1 sequence (P30041 2-224 C91A): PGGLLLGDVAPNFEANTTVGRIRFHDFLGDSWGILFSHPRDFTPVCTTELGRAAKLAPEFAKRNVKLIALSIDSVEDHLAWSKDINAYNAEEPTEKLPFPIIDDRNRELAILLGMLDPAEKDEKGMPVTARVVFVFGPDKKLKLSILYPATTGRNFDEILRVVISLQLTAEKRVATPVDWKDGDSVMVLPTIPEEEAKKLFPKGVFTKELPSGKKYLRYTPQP
The experiment can be described thus: cellular microscale thermophoresis, GFP fusion. For orientation: Microscale thermophoresis detects binding through changes in fluorescence in a small temperature gradient.

For experiment [2], the target named is T2, PRDX6 with GFP tag (Homo sapiens, UniProt P30041, E210A).
T2 sequence (P30041 2-224 E210A): T1 sequence (P30041 2-224 C91A) with A90C, E209A
The experiment can be described thus: cellular microscale thermophoresis, GFP fusion.

A further experiment concerns the target T3, overexpressed PRDX6 (Homo sapiens, UniProt P30041).
T3 sequence (P30041 2-224): T1 sequence (P30041 2-224 C91A) with A90C
Briefly: H2O2 clearance. It counts as cell-based.

Our source for the Kd and IC50 values is article doi:10.1101/2024.09.09.611999v1 (biorxiv, 2024).

Changes are numbered by the printed parent chain. Read-outs that look alike come from different tables or passages of the source.

On to `O=c1cc(-c2ccc(O)cc2)oc2cc(O)cc(O)c12` [apigenin, 4’,5,7-trihydroxyflavone], for which the figures for the Kd at PRDX6 with GFP tag [1] and at PRDX6 with GFP tag [2] were 10.9 µM and 14.5 µM, respectively. For the same molecule, the IC50 (usually the concentration that inhibits the measured activity by half) against overexpressed PRDX6 turned out to be 49.5 µM.
Take `CC(=O)N[C@@H](CS)C(=O)O` [NAC, reference compound]: half-maximal inhibition at overexpressed PRDX6 (substrate H2O2) (IC50) required 15.5 µM.
